Test results as given in patent US11524938B2, “Aromatic sulfonamide derivatives” (Bayer Pharma Aktiengesellschaft, priority 2016, dated 2022).

Tests used:
rat P2X4 = target: T1, rat P2X4 (Rattus norvegicus, UniProt P51577); assay: FLIPR assay, rat P2X4 1321N1 Astrocytoma cells; type: cell-based; details: agonist Mg-ATP 5 μM (EC80)
T1 sequence (P51577 1-388): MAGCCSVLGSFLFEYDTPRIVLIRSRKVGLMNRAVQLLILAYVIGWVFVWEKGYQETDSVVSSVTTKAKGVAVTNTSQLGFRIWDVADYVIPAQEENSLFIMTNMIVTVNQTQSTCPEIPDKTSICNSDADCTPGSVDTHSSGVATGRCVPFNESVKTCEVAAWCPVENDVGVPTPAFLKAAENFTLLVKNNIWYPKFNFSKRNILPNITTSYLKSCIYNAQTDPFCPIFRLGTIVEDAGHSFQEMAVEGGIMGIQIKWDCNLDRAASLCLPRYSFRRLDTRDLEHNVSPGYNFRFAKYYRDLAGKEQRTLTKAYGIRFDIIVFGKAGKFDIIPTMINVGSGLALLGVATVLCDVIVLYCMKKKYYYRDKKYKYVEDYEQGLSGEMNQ
Experimental: 1321N1 Astrocytoma cells stably expressing human P2X4 or rat P2X4 or mouse P2X4 were plated in Collagen I TC-treated microplate at a seeding density of 10000 cells/well and incubated overnight. P2X4 function was assessed by measuring intracellular calcium changes using the calcium-chelating dye Fluo8-AM (Molecular Devices) on a fluorescent imaging plate reader (FLEX/FLIPR station; Molecular Devices). On the day of the assay, the medium was removed and the cells were incubated for 30 min at 37 °C and 5% CO2 in 30 μL of dye buffer (Hank's balanced salt solution, 10 mM HEPES, 1.8 mM CaCl2, 1 mM MgCl2, 2 mM probenecid, 5 mM D-glucose monohydrate, 5 μM Fluo8-AM, pH=7.4). Compounds diluted in probenecid buffer (Hank's balanced salt solution, 10 mM HEPES, 1.8 mM CaCl2, 1 mM MgCl2, 2 mM probenecid, 5 mM D-glucose monohydrate, pH=7.4) were added in a volume of 10 μL and allowed to incubate for 30 min at room temperature. The final assay DMSO concentration was 0.25%. The agonist, Mg-ATP (Sigma), was added in a volume of 10 μL at a concentration representing the EC80 value. EC80 was determined to be 0.5 μM for human and mouse P2X4 and 5 μM for rat P2X4. The fluorescence was measured for an interval of 120 sec at 2 sec intervals. The excitation and emission wavelengths used to monitor fluorescence were 470-495 nm and 515-575 nm, respectively. The data was analyzed based on the increase in peak relative fluorescence units (RFU) compared to the basal fluorescence and the data was normalized to the agonist control. The compounds were tested in triplicates per plate and mean values were plotted in Excel XLFit to determine IC50 values, percentage of maximal inhibition and the Hill coefficients.

Sprague Dawley rats = assay: CFA-Induced Mechanical Hyperalgesia Model in Rat; type: in vivo; details: 3 oral doses, 26 h after CFA, vs vehicle
Experimental: Male Sprague Dawley rats were used. Mechanical hyperalgesia was induced by injecting […] of Complete Freund's Adjuvant (CFA) into the plantar surface of the left hind paw. Mechanical hyperalgesia was measured using the Pressure Application Measurement apparatus (Ugo Basile, Gemonio, Italy). Briefly, a linearly increasing pressure was applied to an area of approximately 50 mm^2 of the plantar side of the hind paw, until a behavioural response (paw withdrawal) was observed or until the pressure reached 1000 gf. The pressure at which the behavioural response occurred was recorded as the Paw Withdrawal Threshold (PWT). Both CFA-injected and contralateral PWTs were determined for each rat, in each treatment group and at each time point of the studies. Rats received 3 oral doses of test compound at approximately 12 hours interval starting 1 hour prior to CFA injection. Mechanical hyperalgesia testing was performed 2 hours before CFA injection and 2 hours after the last dosing (FIGS. 4a and 4b).
FIGS. 4a and 4b as nonbinding explanatory examples of compounds according to the invention represent Paw Withdrawal Threshold in gramm (y-axis) of the ipsilateral paw of all tested animals before CFA treatment and 26 h after CFA treatment and vehicle or Example 39 (FIG. 4a) or 326 (FIG. 4b) treatment. […]

SMILES	Rat P2X4 1321N1 Astrocytoma Cells (FLIPR Assay) avg Efficacy [%] (rat P2X4)	Paw Withdrawal Threshold (PWT), ipsilateral paw (Sprague Dawley rats)
N#Cc1cnn(-c2ccc(NC(=O)Cc3ccccc3Cl)cc2S(N)(=O)=O)c1 [Example 39, 2-(2-Chlorophenyl)-N-[4-(4-cyano-1H-pyrazol-1-yl)-3-sulfamoylphenyl]acetamide]	87	significantly increased PWT
NS(=O)(=O)c1cc(NC(=O)Cc2ccccc2Cl)ccc1-c1cnn(C(F)F)c1 [Example 326, 2-(2-Chlorophenyl)-N-{4-[1-(difluoromethyl)-1H-pyrazol-4-yl]-3-sulfamoylphenyl}acetamide]	99	significantly increased PWT
